Measurements taken from patent US4650803A, “Prodrugs of rapamycin” (University of Kansas, priority 1985, dated 1987).
“Also recorded” adds a separate entry of the source. Where a name gives a salt, the structure may show the parent alone.

Assays:
[1] = Chemical stability study in buffers (hydrolysis half-life, HPLC); type: physicochemical; conditions: buffer, read-out: t1/2 (chemical stability) (converted)
Method: In the examples, chemical stability studies for rapamycin and the prodrugs were done at 20 μg/ml with an ionic strength of 0.5. Stabilities at pH 3.3 (0.05M acetate buffer) and pH 7.4 (0.05M phosphate buffer) were studied at 25° and 37.5° C. No antioxidants were added and the buffers were not deoxygenated.
(§1) The chemical and plasma studies were followed by HPLC using a RP C-18 column (150 mm) and a precolumn (50 mm). […] Chart speed was 1 inch/10 minutes.

[2] = Rat liver homogenate stability study (37.5° C.); type: in vitro ADME, male albino Sprague-Dawley rats; conditions: 20% rat liver homogenate, pH 7.4, 50 μg/ml, read-out: t1/2 (liver homogenate stability) (converted)
Method: (§2) The liver homogenate studies were done using livers freshly obtained from male albino Sprague-Dawley rats. A 20% liver homogenate was prepared in Sorensen's buffer at pH 7.4. Chemical stability studies of rapamycin and the two prodrugs of Examples 2 and 3 were carried out at concentrations of 20, 50 and 50 μg/ml respectively, at 37.5° C.

Solubility in water = type: physicochemical
[3] = Human plasma stability study (37.5° C.); type: in vitro ADME; conditions: for half-life: human, plasma
Method: (§3) The plasma studies were done at three prodrug concentrations: 200, 100 and 50 μg/ml of prodrug. The experimental procedure was as follows: The compound to be tested was taken from a stock aqueous solution of 5 mg/ml and added to the plasma to give the desired prodrug concentration. […] Before centrifugation 200 μl of methanol was added to further precipitate the plasma proteins. The results are expressed in half-lives in hours.
as §1

[4] = Stability to light and to long stirring; type: physicochemical
[5] = Rat plasma stability study (37.5° C.); type: in vitro ADME, Sprague-Dawley male albino rats; conditions: for half-life: rat, plasma, read-out: t1/2 (plasma stability) (converted)
Method: as §3, §1

[6] = Products of decomposition/hydrolysis in plasma and homogenate studies (HPLC, TLC)
Method: as §2

[7] = background statement; cited from earlier work
[8] = human plasma, 50 μg/ml, 37.5° C., read-out: t1/2 (plasma stability) (converted)

| half-life ([1]; pH 3.3, pH 3.3, 25° C.) [h] | half-life ([1]; pH 7.4, pH 7.4, 25° C.) [h] | half-life [2] [h] | solubility (Solubility in water) [mg/mL] | half-life [3, 8] [h] | half-life ([5]; 50 μg/ml) [h] | half-life ([5]; 100 μg/ml) [h] | half-life ([5]; 200 μg/ml) [h] | Structure (SMILES) | stability on prolonged exposure to light [4] | also measured |
| --- | --- | --- | --- | --- | --- | --- | --- | --- | --- | --- |
| 73 | 45 | 4.5 | > 50 | 5 | 1.8 | 1.8 | 2.5 | CO[C@H]1C[C@@H]2CC[C@@H](C)[C@@](O)(O2)C(=O)C(=O)N2CCCC[C@H]2C(=O)O[C@H]([C@H](C)C[C@@H]2CC[C@@H](O)[C@H](OC)C2)CC(=O)[C@H](C)/C=C(\C)[C@@H](OC(=O)CN(C)C)[C@@H](OC)C(=O)[C@H](C)C[C@H](C)/C=C/C=C/C=C/1C [Example 2, Methanesulfonic Acid Salt of Mono-(28)-N,N Dimethylglycinate Ester of Rapamycin] | slow discoloration of the material; also recorded: appears to discolor upon prolonged exposure to light | t1/2 (plasma stability) ([3]; human plasma, 50 μg/ml, 37.5° C.): 5.0 h; half-life ([3]; human plasma, 100 μg/ml, 37.5° C., read-out: t1/2 (plasma stability) (converted)): 4.8 h; half-life ([3]; human plasma, 200 μg/ml, 37.5° C., read-out: t1/2 (plasma stability) (converted)): 5.6 h; stability to long stirring times ([4]; salt form): unstable to long stirring times; t1/2 (plasma stability) ([5]; 50 μg/ml): 1.75 h |
|  |  | 3.7 | > 50 |  |  | 58 | 60 | CCN(CC)CCC(=O)O[C@@H]1/C(C)=C/[C@@H](C)C(=O)C[C@@H]([C@H](C)C[C@@H]2CC[C@@H](O)[C@H](OC)C2)OC(=O)[C@@H]2CCCCN2C(=O)C(=O)[C@]2(O)O[C@@H](CC[C@H]2C)C[C@H](OC)/C(C)=C/C=C/C=C/[C@@H](C)C[C@@H](C)C(=O)[C@@H]1OC [Example 3, Mono-(28)-3-(N,N-Diethylamino)propionate Hydrochloride Salt Ester of Rapamycin] | unstable to prolonged exposure to light; also recorded: appears to discolor upon prolonged exposure to light | half life of the prodrug compared with the others [3]: the shortest; time within which half of the prodrug decomposed into products including mainly rapamycin [3]: two and one-half; half-life ([3]; t1/2 (plasma stability)): 2.5 h; observed product of hydrolysis / decomposition [6]: rapamycin being the only observed product of hydrolysis |
|  |  |  | ~15 |  |  |  |  | CO[C@H]1C[C@@H]2CC[C@@H](C)[C@@](O)(O2)C(=O)C(=O)N2CCCC[C@H]2C(=O)O[C@H]([C@H](C)C[C@@H]2CC[C@@H](O)[C@H](OC)C2)CC(=O)[C@H](C)/C=C(\C)[C@@H](OC(=O)CCCN2CCCC2)[C@@H](OC)C(=O)[C@H](C)C[C@H](C)/C=C/C=C/C=C/1C [Example 4, Mono-(28)-4'-(N-pyrrolidino)-butyrate Hydrochloride Salt Ester of Rapamycin] | appears to discolor upon prolonged exposure to light |  |
| 35.8 | 47.6 | 5.5 |  | 3 | 2.83 |  |  | CO[C@H]1C[C@@H]2CC[C@@H](C)[C@@](O)(O2)C(=O)C(=O)N2CCCC[C@H]2C(=O)O[C@H]([C@H](C)C[C@@H]2CC[C@@H](O)[C@H](OC)C2)CC(=O)[C@H](C)/C=C(\C)[C@@H](O)[C@@H](OC)C(=O)[C@H](C)C[C@H](C)/C=C/C=C/C=C/1C [Rapamycin, rapamycin] |  | half-life ([1]; pH 3.3, pH 3.3, 37.5° C.): 9.9 h; half-life ([1]; pH 7.4, pH 7.4, 37.5° C.): 10.2 h; Solubility in water [7]: 20 micrograms per milliliter; further degradation (TLC) ([6]; plasma and homogenate studies, TLC): further degraded to other decomposition products |
